Results as given in patent US11807625B2, “Capsid inhibitors for the prevention of HIV” (Gilead Sciences, Inc., priority 2019, dated 2023).
Like-named read-outs stand apart in the source and are kept apart here.

Experiment: PK of compound of Formula (Ia) after single intramuscular dose of solution formulations in Wistar Han rats
Format: in vivo
Settings: for Plasma concentration: 0 h; for Plasma concentration / concentration at 48 h / concentration at 1 h / concentration at 24 h / concentration at 72 h / concentration at 96 h / concentration at 168 h / concentration at 3 h / concentration at 8 h: IM 100 mg/kg; for concentration at 48 h / concentration at 1 h / concentration at 24 h / concentration at 72 h / concentration at 96 h / concentration at 168 h / AUC(0-t) / concentration at 3 h / concentration at 8 h: Wistar Han, rat, plasma, 100 mg/kg; for concentration at 48 h / concentration at 1 h / concentration at 24 h / concentration at 72 h / concentration at 96 h / concentration at 168 h / concentration at 3 h / concentration at 8 h: intramuscular; for AUC(0-t): im, single IM 100 mg/kg, male Wistar Han rats, mean ± SD
Method: Formulations containing the compound of Formula (Ia), or a pharmaceutically acceptable salt thereof, were prepared as solutions and optionally administered subcutaneously or intramuscularly to rats, rabbits, and/or dogs.
A solution of about 400 mg/ml of the compound of Formula (Ia) having 21.13 w/w % water, 45.25 w/w % PEG 300, and 33.61 w/w % of a sodium salt of a compound of Formula (Ia) was prepared. The solution was administered intramuscularly to Wistar Han rats at a dose of about 100 mg/kg and beagle dogs at a dose of about 30 mg/kg.
A solution of about 400 mg/ml of the compound of Formula (Ia) having 19.18 w/w % water, 41.09 w/w % PEG 300, 33.61 w/w % of a sodium salt of a compound of Formula (Ia), and 6.12 w/w % poloxamer 188 was prepared. The solution was administered intramuscularly to Wistar Han rats at a dose of about 100 mg/kg and beagle dogs at a dose of about 30 mg/kg.
(§1) A solution of about 500 mg/ml of the compound of Formula (Ia) having 16.93 w/w % water, 36.22 w/w % PEG 300, 41.85 w/w % of a sodium salt of a compound of Formula (Ia), and 5.00% ethanol was prepared. The solution was administered intramuscularly to Wistar Han rats at a dose of about 100 mg/kg and beagle dogs at a dose of about 30 mg/kg.
as §1, with “14.50” for “16.93”, “31.04” for “36.22”, “(Ia), 5.00% ethanol,” for “(Ia),”, “7.61 w/w % poloxamer 188” for “5.00% ethanol”

[1] = Solution H (~400 mg/mL), Wistar Han rats, mean, n = 4, read-out: Plasma concentration, Mean
[2] = Solution K (~500 mg/mL, ethanol), Wistar Han rats, individual animals #1-#4, read-out: Plasma concentration
[3] = Solution K (~500 mg/mL, ethanol), Wistar Han rats, mean, n = 4, read-out: Plasma concentration, Mean
[4] = male, individual rats, solution M, 500 mg/mL, read-out: Plasma concentration
[5] = male, mean, n = 4 rats, solution M, 500 mg/mL, read-out: Plasma concentration
[6] = male, Solution H (~400 mg/mL), Wistar Han rats, mean, n = 4, read-out: Plasma concentration, Mean
[7] = male, Solution J (~400 mg/mL, poloxamer 188), Wistar Han rats, individual animals #1-#4, read-out: Plasma concentration
[8] = male, Solution J (~400 mg/mL, poloxamer 188), Wistar Han rats, mean, n = 4, read-out: Plasma concentration, Mean
[9] = male, Solution K (~500 mg/mL, ethanol), Wistar Han rats, individual animals #1-#4, read-out: Plasma concentration
[10] = male, Solution K (~500 mg/mL, ethanol), Wistar Han rats, mean, n = 4, read-out: Plasma concentration, Mean

With `CC(C)(C#Cc1ccc(-c2ccc(Cl)c3c(NS(C)(=O)=O)nn(CC(F)(F)F)c23)c([C@H](Cc2cc(F)cc(F)c2)NC(=O)Cn2nc(C(F)(F)F)c3c2C(F)(F)[C@@H]2C[C@H]32)n1)S(C)(=O)=O` [compound of Formula (Ia)] the Plasma concentration (individual rats, solution M, 500 mg/mL) was “BLQ”, the Plasma concentration (Solution H (~400 mg/mL), Wistar Han rats, individual animals #1-#4) was “BLQ” and the Plasma concentration (Solution J (~400 mg/mL, poloxamer 188), Wistar Han rats, individual animals #1-#4) was “BLQ”. The Plasma concentration (Solution K (~500 mg/mL, ethanol), Wistar Han rats, individual animals #1-#4) was “BLQ”, the concentration at 48 h (Solution H (~400 mg/mL), Wistar Han rats, individual animals #1-#4, read-out: Plasma concentration) was 354 nM and the concentration at 1 h [1] was 150 nM. It also gave a concentration at 24 h [1] of 439 nM, a concentration at 48 h [1] of 471 nM and a concentration at 72 h [1] of 397 nM. For the same compound, the concentration at 96 h [1] was 477 nM, the concentration at 168 h [1] was 588 nM and the concentration at 72 h [2] was 516 nM. For the same compound, the concentration at 96 h [2] was 537 nM, the concentration at 168 h [2] was 640 nM and the concentration at 1 h [3] was 146 nM. The concentration at 72 h [3] was 433 nM, the concentration at 96 h [3] was 401 nM and the concentration at 168 h [3] was 507 nM. It also gave an AUC(0-t) (male, Solution H (~400 mg/mL; Na salt, water, PEG 300), n = 4, read-out: AUC0-24h) of 7.59 ± 2.93 µM·h, an AUC(0-t) (male, Solution H (~400 mg/mL; Na salt, water, PEG 300), n = 4, read-out: AUC0-168h) of 77.7 ± 26.1 µM·h and an AUC(0-t) (male, Solution J (~400 mg/mL; Na salt, water, PEG 300, poloxamer 188), n = 4, read-out: AUC0-24h) of 12.1 ± 1.9 µM·h. For the same compound, the AUC(0-t) (male, Solution J (~400 mg/mL; Na salt, water, PEG 300, poloxamer 188), n = 4, read-out: AUC0-168h) was 82.5 ± 8.7 µM·h, the AUC(0-t) (male, Solution K (~500 mg/mL; Na salt, water, PEG 300, ethanol), n = 4, read-out: AUC0-24h) was 6.13 ± 1.7 µM·h and the AUC(0-t) (male, Solution K (~500 mg/mL; Na salt, water, PEG 300, ethanol), n = 4, read-out: AUC0-168h) was 67.4 ± 15.7 µM·h. For the same compound, the AUC(0-t) (male, Solution M (~500 mg/mL; Na salt, water, PEG 300, ethanol, poloxamer 188), n = 4, read-out: AUC0-24h) was 13.4 ± 2.4 µM·h, the AUC(0-t) (male, Solution M (~500 mg/mL; Na salt, water, PEG 300, ethanol, poloxamer 188), n = 4, read-out: AUC0-168h) was 92.9 ± 9.6 µM·h and the concentration at 1 h [4] was 177 nM. The concentration at 1 h [5] was 184 nM, the concentration at 3 h [4] was 304 nM and the concentration at 3 h [5] was 405 nM. It also gave a concentration at 8 h [4] of 443 nM, a concentration at 8 h [5] of 544 nM and a concentration at 24 h [4] of 737 nM. It also gave a concentration at 24 h [5] of 750 nM, a concentration at 48 h [4] of 623 nM and a concentration at 48 h [5] of 622 nM. For the same compound, the concentration at 72 h [5] was 426 nM, the concentration at 96 h [4] was 593 nM and the concentration at 96 h [5] was 526 nM. It also gave a concentration at 168 h [4] of 504 nM, a concentration at 168 h [5] of 560 nM and a concentration at 3 h (male, Solution H (~400 mg/mL), Wistar Han rats, individual animals #1-#4, read-out: Plasma concentration) of 179 nM. For the same compound, the concentration at 3 h [6] was 245 nM, the concentration at 8 h [6] was 285 nM and the concentration at 3 h [7] was 463 nM. The concentration at 8 h [7] was 510 nM, the concentration at 24 h [7] was 761 nM and the concentration at 48 h [7] was 716 nM. It also gave a concentration at 72 h [7] of 526 nM, a concentration at 96 h [7] of 506 nM and a concentration at 168 h [7] of 481 nM. It also gave a concentration at 1 h [8] of 249 nM, a concentration at 3 h [8] of 445 nM and a concentration at 8 h [8] of 507 nM. For the same compound, the concentration at 24 h [8] was 605 nM, the concentration at 48 h [8] was 558 nM and the concentration at 72 h [8] was 452 nM. It also gave a concentration at 96 h [8] of 461 nM, a concentration at 168 h [8] of 467 nM and a concentration at 24 h [9] of 438 nM. It also gave a concentration at 48 h [9] of 439 nM, a concentration at 3 h [10] of 209 nM and a concentration at 8 h [10] of 218 nM. It also gave a concentration at 24 h [10] of 361 nM and a concentration at 48 h [10] of 376 nM.
